Assay [1] has as its target Sodium-dependent dopamine transporter (Homo sapiens, UniProt Q01959).
Another assay has as its target Melanocortin receptor 3 (Homo sapiens, UniProt P41968).
Assay [2] addresses T1, 5-hydroxytryptamine receptor 1A (Homo sapiens, UniProt P08908).
T1 sequence (P08908 whole entry): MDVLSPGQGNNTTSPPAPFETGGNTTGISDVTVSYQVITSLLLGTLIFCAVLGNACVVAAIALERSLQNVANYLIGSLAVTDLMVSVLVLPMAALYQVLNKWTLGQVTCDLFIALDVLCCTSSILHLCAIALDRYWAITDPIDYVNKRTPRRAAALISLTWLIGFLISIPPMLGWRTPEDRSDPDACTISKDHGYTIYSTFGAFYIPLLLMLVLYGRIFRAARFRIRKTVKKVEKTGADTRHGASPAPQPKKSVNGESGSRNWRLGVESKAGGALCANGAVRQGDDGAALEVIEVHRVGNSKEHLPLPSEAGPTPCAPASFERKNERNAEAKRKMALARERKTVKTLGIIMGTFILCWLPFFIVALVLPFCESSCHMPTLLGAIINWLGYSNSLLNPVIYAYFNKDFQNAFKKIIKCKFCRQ
Format: functional, cell-based.

In assay [3] the target is Voltage-gated inwardly rectifying potassium channel KCNH2 (Homo sapiens, UniProt Q12809). The format is functional.
A further assay addresses T2, Thromboxane A2 receptor (Homo sapiens, UniProt P21731).
T2 sequence (P21731 whole entry): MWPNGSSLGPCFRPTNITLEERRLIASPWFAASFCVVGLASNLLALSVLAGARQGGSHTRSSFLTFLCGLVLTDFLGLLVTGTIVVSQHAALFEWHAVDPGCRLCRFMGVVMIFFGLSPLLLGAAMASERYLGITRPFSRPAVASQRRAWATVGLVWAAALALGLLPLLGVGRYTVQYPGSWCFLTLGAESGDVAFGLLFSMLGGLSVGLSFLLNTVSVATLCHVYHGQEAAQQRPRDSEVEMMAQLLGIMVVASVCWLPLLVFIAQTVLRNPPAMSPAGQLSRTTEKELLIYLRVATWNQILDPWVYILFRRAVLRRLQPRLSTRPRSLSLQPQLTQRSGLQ

In assay [4] the target is T3, Amine oxidase [flavin-containing] A (Homo sapiens, UniProt P21397).
T3 sequence (P21397 whole entry): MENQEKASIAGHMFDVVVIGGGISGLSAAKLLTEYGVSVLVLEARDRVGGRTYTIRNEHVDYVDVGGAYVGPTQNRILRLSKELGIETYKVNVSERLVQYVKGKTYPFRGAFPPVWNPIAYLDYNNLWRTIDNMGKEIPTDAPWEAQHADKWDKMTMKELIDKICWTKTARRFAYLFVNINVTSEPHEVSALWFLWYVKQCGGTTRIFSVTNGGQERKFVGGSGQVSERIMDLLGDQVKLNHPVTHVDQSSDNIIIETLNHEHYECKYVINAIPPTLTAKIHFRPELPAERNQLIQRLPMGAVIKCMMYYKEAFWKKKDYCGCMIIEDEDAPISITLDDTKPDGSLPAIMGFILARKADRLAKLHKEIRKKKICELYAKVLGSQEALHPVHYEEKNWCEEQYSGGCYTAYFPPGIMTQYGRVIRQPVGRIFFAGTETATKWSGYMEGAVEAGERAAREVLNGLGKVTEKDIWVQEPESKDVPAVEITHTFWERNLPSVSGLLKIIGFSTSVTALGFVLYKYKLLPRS
Format: functional.

The target in a further assay is D(1A) dopamine receptor (Homo sapiens, UniProt P21728). The format is functional, cell-based.
For assay [5], the target named is T4, Equilibrative nucleoside transporter 1 (Homo sapiens, UniProt Q99808).
T4 sequence (Q99808 whole entry): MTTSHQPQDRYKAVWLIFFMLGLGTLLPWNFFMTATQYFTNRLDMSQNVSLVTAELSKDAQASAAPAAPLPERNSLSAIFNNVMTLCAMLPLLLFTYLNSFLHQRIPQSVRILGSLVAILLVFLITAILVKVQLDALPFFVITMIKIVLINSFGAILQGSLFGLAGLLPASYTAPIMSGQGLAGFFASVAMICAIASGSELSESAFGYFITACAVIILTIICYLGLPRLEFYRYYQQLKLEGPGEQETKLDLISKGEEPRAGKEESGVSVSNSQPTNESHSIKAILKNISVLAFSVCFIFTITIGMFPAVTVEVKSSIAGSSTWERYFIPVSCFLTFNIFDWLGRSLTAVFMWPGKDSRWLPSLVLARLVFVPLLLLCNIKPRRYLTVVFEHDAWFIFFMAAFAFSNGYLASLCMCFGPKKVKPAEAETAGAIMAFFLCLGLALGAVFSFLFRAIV

The target of assay [6] is T5, Cholecystokinin receptor type A (Homo sapiens, UniProt P32238).
T5 sequence (P32238 whole entry): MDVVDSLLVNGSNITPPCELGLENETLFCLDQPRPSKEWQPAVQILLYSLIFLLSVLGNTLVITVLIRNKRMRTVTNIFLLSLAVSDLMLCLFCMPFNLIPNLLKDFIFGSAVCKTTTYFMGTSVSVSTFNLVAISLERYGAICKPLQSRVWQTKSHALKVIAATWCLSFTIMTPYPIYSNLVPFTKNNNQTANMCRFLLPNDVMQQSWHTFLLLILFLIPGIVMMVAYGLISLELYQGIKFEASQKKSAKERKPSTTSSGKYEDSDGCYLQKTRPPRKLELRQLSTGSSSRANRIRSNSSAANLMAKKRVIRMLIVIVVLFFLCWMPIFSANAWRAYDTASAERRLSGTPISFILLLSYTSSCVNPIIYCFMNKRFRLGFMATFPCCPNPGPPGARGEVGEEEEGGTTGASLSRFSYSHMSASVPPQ

Assay [7] concerns the target T6, Alpha-2A adrenergic receptor (Homo sapiens, UniProt P08913).
T6 sequence (P08913 whole entry): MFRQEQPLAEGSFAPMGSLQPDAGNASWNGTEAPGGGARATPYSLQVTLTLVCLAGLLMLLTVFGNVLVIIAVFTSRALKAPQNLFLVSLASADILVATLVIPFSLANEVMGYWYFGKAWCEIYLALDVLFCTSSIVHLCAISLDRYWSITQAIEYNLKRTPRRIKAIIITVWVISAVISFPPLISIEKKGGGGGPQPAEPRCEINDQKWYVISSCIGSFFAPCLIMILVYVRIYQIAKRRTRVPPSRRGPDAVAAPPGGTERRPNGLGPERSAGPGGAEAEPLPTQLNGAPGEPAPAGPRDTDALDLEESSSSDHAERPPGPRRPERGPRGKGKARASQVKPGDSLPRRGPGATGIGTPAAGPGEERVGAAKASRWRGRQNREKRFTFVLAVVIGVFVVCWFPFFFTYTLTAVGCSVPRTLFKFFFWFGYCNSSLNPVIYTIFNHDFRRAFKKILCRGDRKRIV
The format is functional, cell-based.

Results on 14 molecules are retold here after ChEMBL document CHEMBL5291721, “A preclinical secondary pharmacology resource illuminates target-adverse drug reaction associations of marketed drugs” (Nat Commun, 2023).

As a reminder, the AC50 is the concentration giving half of the maximal activity seen.

A value given as a limit tells only on which side of the number the result lay.
Note: assay procedure not described here.

Chain of D(1A) dopamine receptor (P21728 whole entry): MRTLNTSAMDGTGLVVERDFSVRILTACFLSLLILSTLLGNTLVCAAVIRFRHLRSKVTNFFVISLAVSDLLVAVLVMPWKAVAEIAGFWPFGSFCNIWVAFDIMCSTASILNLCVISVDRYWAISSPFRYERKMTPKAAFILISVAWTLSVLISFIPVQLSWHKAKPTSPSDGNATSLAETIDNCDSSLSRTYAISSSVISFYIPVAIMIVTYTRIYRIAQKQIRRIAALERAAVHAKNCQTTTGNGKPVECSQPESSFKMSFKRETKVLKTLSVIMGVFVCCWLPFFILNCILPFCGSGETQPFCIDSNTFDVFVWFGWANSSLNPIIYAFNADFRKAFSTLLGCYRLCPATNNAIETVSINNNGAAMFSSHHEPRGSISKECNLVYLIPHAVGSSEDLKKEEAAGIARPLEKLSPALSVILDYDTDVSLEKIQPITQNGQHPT
Chain of Melanocortin receptor 3 (P41968 whole entry): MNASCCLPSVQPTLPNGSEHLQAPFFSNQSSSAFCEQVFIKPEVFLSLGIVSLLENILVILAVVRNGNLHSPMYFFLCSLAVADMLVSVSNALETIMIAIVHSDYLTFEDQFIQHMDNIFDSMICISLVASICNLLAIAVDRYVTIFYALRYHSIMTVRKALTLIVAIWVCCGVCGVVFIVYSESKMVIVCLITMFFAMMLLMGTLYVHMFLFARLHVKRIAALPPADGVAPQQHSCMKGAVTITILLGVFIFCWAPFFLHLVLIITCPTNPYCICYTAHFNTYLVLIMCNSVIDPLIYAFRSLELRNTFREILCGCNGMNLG
Chain of Voltage-gated inwardly rectifying potassium channel KCNH2 (Q12809 whole entry): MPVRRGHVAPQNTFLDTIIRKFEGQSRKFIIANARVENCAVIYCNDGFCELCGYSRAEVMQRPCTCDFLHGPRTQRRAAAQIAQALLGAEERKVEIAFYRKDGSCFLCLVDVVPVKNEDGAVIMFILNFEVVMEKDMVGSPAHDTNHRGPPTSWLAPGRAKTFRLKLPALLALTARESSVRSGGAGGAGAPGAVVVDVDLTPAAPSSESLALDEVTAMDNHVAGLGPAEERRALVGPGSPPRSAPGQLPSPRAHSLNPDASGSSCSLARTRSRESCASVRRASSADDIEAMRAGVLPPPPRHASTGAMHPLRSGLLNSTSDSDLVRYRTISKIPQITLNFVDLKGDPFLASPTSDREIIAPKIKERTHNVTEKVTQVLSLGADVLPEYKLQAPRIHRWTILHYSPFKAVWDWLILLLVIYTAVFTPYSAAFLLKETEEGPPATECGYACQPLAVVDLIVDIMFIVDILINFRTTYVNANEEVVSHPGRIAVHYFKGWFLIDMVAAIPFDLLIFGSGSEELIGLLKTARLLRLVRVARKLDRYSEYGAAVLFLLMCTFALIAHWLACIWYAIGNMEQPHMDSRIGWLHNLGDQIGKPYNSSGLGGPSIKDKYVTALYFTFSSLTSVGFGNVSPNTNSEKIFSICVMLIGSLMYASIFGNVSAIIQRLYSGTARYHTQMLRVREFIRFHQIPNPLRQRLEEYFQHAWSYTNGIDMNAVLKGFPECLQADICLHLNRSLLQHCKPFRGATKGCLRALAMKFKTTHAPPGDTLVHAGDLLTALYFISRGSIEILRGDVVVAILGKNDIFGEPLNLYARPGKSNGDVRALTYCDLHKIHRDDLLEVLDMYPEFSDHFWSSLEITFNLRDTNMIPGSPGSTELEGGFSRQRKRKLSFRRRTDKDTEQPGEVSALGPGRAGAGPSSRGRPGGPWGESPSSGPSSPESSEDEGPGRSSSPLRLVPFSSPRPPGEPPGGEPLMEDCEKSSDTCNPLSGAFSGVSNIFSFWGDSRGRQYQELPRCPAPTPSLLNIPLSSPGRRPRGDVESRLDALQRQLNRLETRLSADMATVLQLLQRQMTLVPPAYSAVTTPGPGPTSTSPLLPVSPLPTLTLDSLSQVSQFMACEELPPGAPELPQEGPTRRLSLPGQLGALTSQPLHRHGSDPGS
Chain of Sodium-dependent dopamine transporter (Q01959 whole entry): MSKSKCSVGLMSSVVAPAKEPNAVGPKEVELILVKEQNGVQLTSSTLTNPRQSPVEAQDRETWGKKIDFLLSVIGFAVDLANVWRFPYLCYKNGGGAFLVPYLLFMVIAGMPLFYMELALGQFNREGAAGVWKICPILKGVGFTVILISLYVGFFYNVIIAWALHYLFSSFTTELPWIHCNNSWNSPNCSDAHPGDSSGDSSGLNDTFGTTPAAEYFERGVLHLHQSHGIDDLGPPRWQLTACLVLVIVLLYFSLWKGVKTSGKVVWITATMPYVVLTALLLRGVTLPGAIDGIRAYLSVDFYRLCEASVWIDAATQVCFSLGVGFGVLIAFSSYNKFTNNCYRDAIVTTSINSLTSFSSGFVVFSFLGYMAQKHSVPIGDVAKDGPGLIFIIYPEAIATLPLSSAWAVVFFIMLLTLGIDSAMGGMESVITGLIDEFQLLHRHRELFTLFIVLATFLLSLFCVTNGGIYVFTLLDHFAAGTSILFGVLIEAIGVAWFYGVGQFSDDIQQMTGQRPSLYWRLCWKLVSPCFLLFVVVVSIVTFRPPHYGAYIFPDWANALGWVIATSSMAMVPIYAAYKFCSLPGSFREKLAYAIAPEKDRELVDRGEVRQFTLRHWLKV

In the case of `C=CCN1CCc2nc(N)sc2CC1` [TALIPEXOLE], the AC50 (in assay [1]; on Melanocortin receptor 3; in assay [2]; in assay [3]; at Thromboxane A2 receptor; in [4]) was above 30 µM in each case. In addition, the AC50 (on D(1A) dopamine receptor; in [5]; in [6]) was above 30 µM each time.
`CO[C@H]1C[C@H](O[C@H]2CC[C@@]3(C)[C@H](CC[C@@H]4[C@@H]3CC[C@]3(C)[C@@H](C5=CC(=O)OC5)[C@@H](OC(C)=O)C[C@]43O)C2)O[C@@H](C)[C@@H]1O` [OLEANDRIN]: the AC50 (in assay [7]; in [2]; in assay [3]; in assay [4]; at D(1A) dopamine receptor) was above 30 µM throughout.
Turning to `C[C@]12C/C(=C/O)C(=O)C[C@@H]1CC[C@@H]1[C@@H]2CC[C@@]2(C)[C@H]1CC[C@]2(C)O` [OXYMETHOLONE], the AC50 (in assay [1]; on Melanocortin receptor 3; in [7]; in assay [2]; in [3]; at Thromboxane A2 receptor) was above 30 µM each time. The AC50 (in assay [4]; at D(1A) dopamine receptor; in [6]) was above 30 µM in each case.
Take `CC(C)(C)NCC(O)c1ccccc1Cl` (configuration not stated) [TULOBUTEROL]: the AC50 (in assay [1]; at Melanocortin receptor 3; in assay [7]; in assay [2]; in assay [3]; at Thromboxane A2 receptor) was above 30 µM throughout. Besides, the AC50 (in assay [4]; at D(1A) dopamine receptor; in [6]) was above 30 µM each time.
As for `CO/N=C(\C(=O)N[C@@H]1C(=O)N2C(C(=O)O)=C(CSc3nc(=O)c(=O)[nH]n3C)CS[C@H]12)c1csc(N)n1` [CEFTRIAXONE], the AC50 (in assay [1]; on Melanocortin receptor 3; in [7]; in assay [2]; in assay [3]; in assay [4]) was above 30 µM each time. In addition, the AC50 (on D(1A) dopamine receptor; in assay [5]; in assay [6]) was above 30 µM in each case.
On to `CCCCCCCC(=O)CC[C@@H]1[C@@H](C/C=C\CCCC(=O)OC(C)C)[C@@H](O)C[C@H]1O` [UNOPROSTONE ISOPROPYL], for which the AC50 was 7.2 µM in assay [1], 27 µM on Melanocortin receptor 3 and above 30 µM in assay [4].
Consider `C[N+]12CCC(CC1)C(OC(=O)C(O)(c1ccccc1)c1ccccc1)C2` (configuration not stated), for which the AC50 is above 30 µM in [1]; above 30 µM on Melanocortin receptor 3; above 30 µM in assay [7]; above 30 µM in [2]; 1.3 µM in assay [3]; above 30 µM at Thromboxane A2 receptor. The AC50 (in [4]; at D(1A) dopamine receptor; in assay [6]) was above 30 µM in each case.
`Fc1ccc([C@@H]2CCNC[C@H]2COc2ccc3c(c2)OCO3)cc1` [PAROXETINE]: the AC50 at Melanocortin receptor 3 is above 30 µM; in [2] it was 17 µM; on Thromboxane A2 receptor it was above 30 µM; in assay [4], above 10 µM; on D(1A) dopamine receptor it was above 10 µM; in assay [5], above 30 µM. In assay [6], this molecule displayed an AC50 above 30 µM.
For the molecule `CN1CCN=C(c2ccccc2)c2cc(Cl)ccc21` [MEDAZEPAM], the AC50 was 22 µM in assay [1]; above 30 µM at Melanocortin receptor 3; above 30 µM in assay [7]; above 30 µM in [2]; above 30 µM on Thromboxane A2 receptor; above 30 µM in [4]. Besides, the AC50 (at D(1A) dopamine receptor; in assay [6]) was above 30 µM each time.
Take `CCOC(=O)[C@@H](N)Cc1ccc(-c2cc(O[C@H](c3ccc(Cl)cc3-n3ccc(C)n3)C(F)(F)F)nc(N)n2)cc1` [TELOTRISTAT ETHYL]: the AC50 in assay [1] was 18 µM; at Melanocortin receptor 3, 12 µM; in assay [7], above 30 µM; in [3], 26 µM; in assay [4] it was above 30 µM; at D(1A) dopamine receptor, above 30 µM. The AC50 in [5] was above 30 µM; in assay [6] it was 10 µM.
On to `CCN(CC)CCCC(C)Nc1c2ccc(Cl)cc2nc2ccc(OC)cc12` (configuration not stated) [QUINACRINE], for which, in assay [3], the activity was half-maximal at 0.7 µM (AC50).
Take `COc1cc(N)c(Cl)cc1C(=O)NC1CCN(CCCOc2ccc(F)cc2)CC1OC` (configuration not stated) [CISAPRIDE]: the AC50 in [1] was above 30 µM; on Melanocortin receptor 3, above 30 µM; in assay [2], above 10 µM; on Thromboxane A2 receptor, 22.9 µM; in assay [4], above 10 µM; at D(1A) dopamine receptor, above 10 µM. For the same molecule, the AC50 in [5] and in assay [6] was above 30 µM each time.
In the case of `O=C(CCCN1CCC(O)(c2ccc(Br)cc2)CC1)c1ccc(F)cc1` [BROMPERIDOL], the AC50 was above 30 µM on Melanocortin receptor 3; above 30 µM in [2]; 0.23 µM in assay [3]; above 30 µM at Thromboxane A2 receptor; above 30 µM in assay [4]; above 30 µM at D(1A) dopamine receptor. For the same molecule, the AC50 in assay [5] and in [6] was above 30 µM throughout.
Turning to `CO/N=C(\C(=O)N[C@@H]1C(=O)N2C(C(=O)O)=CCS[C@H]12)c1csc(N)n1` [CEFTIZOXIME], the AC50 (in assay [1]; on Melanocortin receptor 3; in assay [7]; in [2]; in [3]; in assay [4]) was above 30 µM throughout. Also, the AC50 (on D(1A) dopamine receptor; in [5]; in assay [6]) was above 30 µM each time.
